Source: ChEMBL document CHEMBL1201862, “PubChem BioAssay data set” (2004)
Several values for one entry are separate records, joined by “and”; a condition that tells them apart may be missing. Equal entries are not always repeated. Activity calls are given as the source filed them.

Assays:
[1] = tested on: Streptococcus sp. 'group A'; experiment: growth inhibition of control SK(-) GAS strain, dose response, counter-screen for streptokinase expression inhibitor project, luminescence, kanamycin, BacTiterGlo, confirmation (AID 1900); format: functional, organism-based
Streptokinase A = target: T1, Streptokinase A (Streptococcus pyogenes serotype M1, UniProt P10520); experiment: S. pyogenes streptokinase expression inhibitors, potency, dose response, plasminogen activation absorbance, OD405 (AID 1914); format: functional, Streptococcus pyogenes M1 GAS;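 further: secreted streptokinase activity via plasminogen activation per viability signal from cell pellet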
T1 sequence (P10520 whole entry): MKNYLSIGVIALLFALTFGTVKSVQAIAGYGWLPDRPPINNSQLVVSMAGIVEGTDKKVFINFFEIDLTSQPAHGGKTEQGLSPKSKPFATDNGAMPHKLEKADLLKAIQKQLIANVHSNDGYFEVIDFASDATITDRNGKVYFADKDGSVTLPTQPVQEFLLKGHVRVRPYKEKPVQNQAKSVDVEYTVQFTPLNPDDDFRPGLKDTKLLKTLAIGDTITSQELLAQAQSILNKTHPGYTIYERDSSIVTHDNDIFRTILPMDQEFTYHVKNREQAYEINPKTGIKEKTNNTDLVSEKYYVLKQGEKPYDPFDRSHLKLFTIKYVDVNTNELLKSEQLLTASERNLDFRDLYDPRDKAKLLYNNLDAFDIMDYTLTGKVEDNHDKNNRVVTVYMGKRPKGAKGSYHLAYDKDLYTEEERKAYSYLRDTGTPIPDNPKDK

[2] = target: T2, E3 ubiquitin-protein ligase XIAP (Homo sapiens, UniProt P98170); experiment: Counter Screen using XIAP-Bir3 for Chemical Antagonists of Bir1/2 domains of IAP-family anti-apoptotic proteins. [Related pubchem assays (depositor defined):AID1018, AID1449, AID1514, AID1638, AID1749, AID1750, AID488957, AID488963]
[3] = target: T2, E3 ubiquitin-protein ligase XIAP; experiment: XIAP antagonists, biochemical, IAP family, fluorescence polarization (AID 1018); format: functional
[4] = inhibitors of intracellular T. cruzi replication, confirmation, NIH3T3 host cells, beta-gal luminescence (AID 2044); format: functional, cell-based;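 further: intracellular parasites grown in NIH/3T3 mouse fibroblasts as host cells; luminescent beta-galactosidase reporter signal from transgenic T. cruzi replicating inside host cells; inhibitors lower the luminescence signal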
[5] = cytotoxicity toward NIH3T3 fibroblasts, dose response, counter-screen, cell-based, ATP luminescence, mouse fibroblasts (AID 2010); format: functional;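 further: cells exposed to compound for about 90 hours before reading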
Streptococcus = experiment: Group A Streptococcus viability loss, dose response, counter-screen for streptokinase expression inhibitor project, luminescence, BacTiterGlo (AID 1915); format: functional, organism-based;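 further: potency for reduction of bacterial viability or growth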
Melanocortin receptor 4 = Melanocortin receptor 4 (Homo sapiens, UniProt P32245); experiment: MC4R antagonist potency on cAMP, dose response, cell-based, TR-FRET, biased antagonists (AID 602298); format: functional;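 further: antagonist potency against agonist-stimulated cAMP production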
[6] = nonselective inhibitors of cellular cAMP signaling, dose response, counter-screen for MC4R biased antagonist project, cell-based, TR-FRET cAMP detection (AID 602305); format: functional;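 further: U2OS cells stimulated with forskolin near its EC80 as the cAMP inducer; potency is for inhibition of forskolin-stimulated cAMP signaling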
Paired box protein Pax-8 = Paired box protein Pax-8 (Homo sapiens, UniProt Q06710); experiment: inhibitors of PAX8-driven TPO luciferase reporter, dose response, RMG-I cells, cherry-pick (AID 687027); format: functional, cell-based;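 further: luciferase reporter driven by Pax8 target thyroperoxidase promoter measured by SteadyGlo luminescence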
[7] = non-specific cell cytotoxicity, dose response, cytotoxicity control for PAX8 inhibitor project, plate reader, dry powder samples (AID 743021); format: functional, cell-based
[8] = Luminescence Cell-Based Dose Confirmation HTS to Identify Activators of 5'UTR Stem-Loop Driven Alpha-Synuclein mRNA Translation in H4 Neuroglioblastoma Cells. [Related pubchem assays: 1829 (Project Summary), 1814 (Primary HTS)]; format: functional
[9] = Luminescence Cell-Based Dose Response HTS to Identify Activators of Luciferase Translation or Activity in H4 […] Cells. [Related pubchem assays: 1829 (Project Summary), 1814 (Primary HTS)]; format: functional
H4 = experiment: Luminescence Cell-Based Dose Response HTS to Identify Activators of 5'UTR Stem-Loop Driven Prion Protein mRNA Translation in H4 Neuroglioblastoma Cells. [Related pubchem assays: 1829 (Project Summary), 1814 (Primary HTS)]; format: functional; conditions: Homo sapiens
Cysteine protease ATG4B = Cysteine protease ATG4B (Homo sapiens, UniProt Q9Y4P1); format: functional;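 further: Fluorescence-based dose-response confirmation assay measuring inhibition of ATG4B activity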
Phospholipase A2 = Phospholipase A2 (Homo sapiens, UniProt P04054); format: functional;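 further: confirmatory dose-response counterscreen on phospholipase A2, testing hits that came from an ultra-high-throughput screen for ATG4B inhibitors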
[10] = THP-1 cell cytotoxicity, dose response, cytotoxicity control for non-replicating M. tuberculosis project (AID 489025); format: functional
[11] = HepG2 cell cytotoxicity, dose response, cytotoxicity control for non-replicating M. tuberculosis project (AID 489018); format: functional; conditions: Mycobacterium tuberculosis
[12] = Vero E6 cell cytotoxicity, dose response, cytotoxicity control for non-replicating M. tuberculosis project, secondary assay (AID 492998); format: functional, VeroE6; conditions: Vero C1008
cells = format: functional
[13] = target: Apoptotic protease-activating factor 1 (Homo sapiens, UniProt O14727); format: functional
[14] = target: Delta-type opioid receptor (Homo sapiens, UniProt P41143); experiment: Counterscreen for agonists of heterodimerization of the mu 1 (OPRM1) and delta 1 (OPRD1) opioid receptors: Luminescence-based cell-based high throughput dose response assay to identify agonists of OPRD1 homodimerization. [Related pubchem assays (depositor defined):AID504326, AID504355, AID504692, AID504904, AID504905]; format: functional
Mu-type opioid receptor = Mu-type opioid receptor (Homo sapiens, UniProt P35372); experiment: Counterscreen for agonists of heterodimerization of the mu 1 (OPRM1) and delta 1 (OPRD1) opioid receptors: Luminescence-based cell-based high throughput dose response assay to identify agonists of OPRM1 homodimerization.; format: functional;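 further: U2OS cells expressing OPRM1 and beta-arrestin as split beta-galactosidase partners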
[15] = target: 5-hydroxytryptamine receptor 5A (Homo sapiens, UniProt P47898); experiment: Counterscreen for agonists of OPRM1-OPRD1 heterodimerization: luminescence-based cell-based high throughput dose response assay to identify agonists of 5-hydroxytryptamine (serotonin) 5A receptor (HTR5A). [Related pubchem assays (depositor defined):AID504326, AID504355, AID504692, AID504904, AID504905]; format: functional
CHO-K1 = experiment: Counterscreen for antagonists of the orexin 1 receptor (OX1R; HCRTR1): Homogeneous time resolved fluorescence (HTRF)-based cell-based dose response assay to identify antagonists of the parental CHO-K1 cell line. [Related pubchem assays (depositor defined):AID434989, AID435008, AID463079, AID485270, AID492963, AID492964, AID492965, AID493232, AID504699, AID504701]; format: functional; conditions: Cricetulus griseus;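 further: potency for inhibition of ATP-stimulated IP1 production as antagonists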
[16] = Counterscreen for antagonists of the orexin 1 receptor (OX1R; HCRTR1): Fluorescence-based cell-based high throughput dose response assay to identify antagonists of the parental CHO cell line. [Related pubchem assays (depositor defined):AID434989, AID435008, AID463079, AID485270, AID492963, AID492964, AID492965, AID493232, AID504699, AID504701]; format: functional
[17] = target: T3, Orexin/Hypocretin receptor type 1 (Homo sapiens, UniProt O43613); experiment: Homogeneous Time Resolved Fluorescence (HTRF)-based cell-based high throughput dose response assay for antagonists of the orexin 1 receptor (OX1R; HCRTR1). [Related pubchem assays (depositor defined):AID434989, AID435008, AID463079, AID485270, AID492963, AID492964, AID492965, AID493232, AID504717, AID504718]; format: functional
T3 sequence (O43613 whole entry): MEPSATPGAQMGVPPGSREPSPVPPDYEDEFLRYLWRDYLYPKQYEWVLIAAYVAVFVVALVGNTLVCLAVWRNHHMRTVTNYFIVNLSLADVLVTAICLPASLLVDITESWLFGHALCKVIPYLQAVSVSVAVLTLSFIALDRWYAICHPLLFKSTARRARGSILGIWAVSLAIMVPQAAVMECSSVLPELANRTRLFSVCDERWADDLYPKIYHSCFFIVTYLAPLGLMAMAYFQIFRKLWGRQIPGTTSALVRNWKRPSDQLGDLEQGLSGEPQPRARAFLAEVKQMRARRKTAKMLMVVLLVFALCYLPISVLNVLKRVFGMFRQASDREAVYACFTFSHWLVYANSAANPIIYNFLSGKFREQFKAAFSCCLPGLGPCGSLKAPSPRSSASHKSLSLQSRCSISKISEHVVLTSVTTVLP

[18] = target: T3, Orexin/Hypocretin receptor type 1; experiment: Fluorescence-based cell-based high throughput dose response assay for antagonists of the orexin 1 receptor (OX1R; HCRTR1). [Related pubchem assays (depositor defined):AID434989, AID435008, AID463079, AID485270, AID492963, AID492964, AID492965, AID493232, AID504717, AID504718]; format: functional
Orexin receptor type 2 [19] = target: T4, Orexin receptor type 2 (Homo sapiens, UniProt O43614); experiment: Counterscreen assay for antagonists of the orexin 1 receptor (OX1R; HCRTR1): Fluorescence-based cell-based dose response assay for antagonists of the orexin 2 receptor (OX2R; HCRTR2), run by assay provider.; format: functional
T4 sequence (O43614 whole entry): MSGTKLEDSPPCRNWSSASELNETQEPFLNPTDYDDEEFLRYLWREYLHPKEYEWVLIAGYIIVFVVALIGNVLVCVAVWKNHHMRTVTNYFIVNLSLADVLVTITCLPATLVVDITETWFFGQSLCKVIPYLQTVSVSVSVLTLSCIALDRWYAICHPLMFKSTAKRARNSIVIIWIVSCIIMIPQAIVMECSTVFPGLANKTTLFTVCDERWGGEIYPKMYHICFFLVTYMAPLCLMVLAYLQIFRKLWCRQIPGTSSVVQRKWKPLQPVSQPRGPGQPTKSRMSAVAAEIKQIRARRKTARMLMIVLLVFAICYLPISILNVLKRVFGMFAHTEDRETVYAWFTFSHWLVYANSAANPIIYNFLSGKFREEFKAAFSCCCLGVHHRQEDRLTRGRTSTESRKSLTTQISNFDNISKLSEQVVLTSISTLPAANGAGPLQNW

Orexin receptor type 2 [20] = target: T4, Orexin receptor type 2; experiment: Counterscreen assay for antagonists of the orexin 1 receptor (OX1R; HCRTR1): Homogeneous Time Resolved Fluorescence (HTRF)-based cell-based dose response assay for antagonists of the orexin 2 receptor (OX2R; HCRTR2), run by assay provider.; format: functional
[21] = target: Serine/threonine-protein kinase pim-1 (Homo sapiens, UniProt P11309); format: functional
[22] = target: Serine/threonine-protein kinase pim-3 (Homo sapiens, UniProt Q86V86); format: functional;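 further: value obtained as one member of a broad kinase panel profiling effort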
[23] = target: Mitogen-activated protein kinase kinase kinase kinase 5 (Homo sapiens, UniProt Q9Y4K4); format: functional;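 further: measured as one member of a kinome-spanning kinase panel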
[24] = target: Glycogen synthase kinase-3 beta (Homo sapiens, UniProt P49841); format: functional;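 further: value comes from a broad kinome profiling panel, with GSK3B as the panel member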
[25] = target: Mitogen-activated protein kinase kinase kinase kinase 4 (Homo sapiens, UniProt O95819); format: functional
[26] = target: Serine/threonine-protein kinase BRSK1 (Homo sapiens, UniProt Q8TDC3); format: functional;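 further: measured within a kinome-wide kinase panel, with the target listed as KIAA1811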
[27] = target: Beta-2 adrenergic receptor (Homo sapiens, UniProt P07550); experiment: beta2AR agonists driving receptor internalization, dose response, cell-based, FAP fluorogen, flow cytometry, cherry pick 1 (AID 588763); format: functional
Sequence of Beta-2 adrenergic receptor (P07550 whole entry): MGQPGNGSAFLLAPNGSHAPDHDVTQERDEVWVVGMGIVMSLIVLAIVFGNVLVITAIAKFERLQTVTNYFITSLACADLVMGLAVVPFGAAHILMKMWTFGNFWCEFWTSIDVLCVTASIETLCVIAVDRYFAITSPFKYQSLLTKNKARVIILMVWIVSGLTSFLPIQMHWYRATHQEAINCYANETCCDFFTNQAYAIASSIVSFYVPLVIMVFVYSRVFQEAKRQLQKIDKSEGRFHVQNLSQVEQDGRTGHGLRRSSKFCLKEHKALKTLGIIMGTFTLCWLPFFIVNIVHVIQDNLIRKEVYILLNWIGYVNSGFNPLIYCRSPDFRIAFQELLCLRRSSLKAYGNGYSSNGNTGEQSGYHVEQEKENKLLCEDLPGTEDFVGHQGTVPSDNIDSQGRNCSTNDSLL

T2 sequence (P98170 whole entry): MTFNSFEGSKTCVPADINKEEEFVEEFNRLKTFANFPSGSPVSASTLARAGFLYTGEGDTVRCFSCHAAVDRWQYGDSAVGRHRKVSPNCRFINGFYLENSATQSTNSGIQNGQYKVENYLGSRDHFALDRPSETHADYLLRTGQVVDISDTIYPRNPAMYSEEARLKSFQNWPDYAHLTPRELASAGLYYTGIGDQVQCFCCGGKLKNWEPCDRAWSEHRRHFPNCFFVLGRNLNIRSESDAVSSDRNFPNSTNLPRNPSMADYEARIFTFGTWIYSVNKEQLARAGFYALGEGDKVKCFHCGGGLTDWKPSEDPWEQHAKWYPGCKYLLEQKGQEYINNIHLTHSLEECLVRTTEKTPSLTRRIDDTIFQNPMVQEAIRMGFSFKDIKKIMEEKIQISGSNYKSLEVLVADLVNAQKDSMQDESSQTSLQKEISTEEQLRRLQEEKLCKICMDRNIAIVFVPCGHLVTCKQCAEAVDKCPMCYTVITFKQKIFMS
Sequence of Phospholipase A2 (P04054 whole entry): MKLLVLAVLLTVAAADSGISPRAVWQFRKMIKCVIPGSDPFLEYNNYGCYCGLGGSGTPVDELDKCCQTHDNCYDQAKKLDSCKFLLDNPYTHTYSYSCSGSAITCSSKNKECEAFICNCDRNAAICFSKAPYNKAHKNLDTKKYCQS
Sequence of Cysteine protease ATG4B (Q9Y4P1 whole entry): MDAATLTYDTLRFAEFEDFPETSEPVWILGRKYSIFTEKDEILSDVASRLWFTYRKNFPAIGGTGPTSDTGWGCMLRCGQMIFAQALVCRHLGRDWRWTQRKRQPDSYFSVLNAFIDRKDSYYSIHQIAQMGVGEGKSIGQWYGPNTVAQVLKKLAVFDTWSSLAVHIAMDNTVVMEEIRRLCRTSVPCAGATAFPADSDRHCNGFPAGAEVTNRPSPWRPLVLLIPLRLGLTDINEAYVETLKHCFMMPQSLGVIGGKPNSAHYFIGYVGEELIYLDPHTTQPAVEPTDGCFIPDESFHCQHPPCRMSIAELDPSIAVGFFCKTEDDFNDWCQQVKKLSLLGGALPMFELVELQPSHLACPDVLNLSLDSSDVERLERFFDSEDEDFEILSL
Sequence of Mitogen-activated protein kinase kinase kinase kinase 5 (Q9Y4K4 whole entry): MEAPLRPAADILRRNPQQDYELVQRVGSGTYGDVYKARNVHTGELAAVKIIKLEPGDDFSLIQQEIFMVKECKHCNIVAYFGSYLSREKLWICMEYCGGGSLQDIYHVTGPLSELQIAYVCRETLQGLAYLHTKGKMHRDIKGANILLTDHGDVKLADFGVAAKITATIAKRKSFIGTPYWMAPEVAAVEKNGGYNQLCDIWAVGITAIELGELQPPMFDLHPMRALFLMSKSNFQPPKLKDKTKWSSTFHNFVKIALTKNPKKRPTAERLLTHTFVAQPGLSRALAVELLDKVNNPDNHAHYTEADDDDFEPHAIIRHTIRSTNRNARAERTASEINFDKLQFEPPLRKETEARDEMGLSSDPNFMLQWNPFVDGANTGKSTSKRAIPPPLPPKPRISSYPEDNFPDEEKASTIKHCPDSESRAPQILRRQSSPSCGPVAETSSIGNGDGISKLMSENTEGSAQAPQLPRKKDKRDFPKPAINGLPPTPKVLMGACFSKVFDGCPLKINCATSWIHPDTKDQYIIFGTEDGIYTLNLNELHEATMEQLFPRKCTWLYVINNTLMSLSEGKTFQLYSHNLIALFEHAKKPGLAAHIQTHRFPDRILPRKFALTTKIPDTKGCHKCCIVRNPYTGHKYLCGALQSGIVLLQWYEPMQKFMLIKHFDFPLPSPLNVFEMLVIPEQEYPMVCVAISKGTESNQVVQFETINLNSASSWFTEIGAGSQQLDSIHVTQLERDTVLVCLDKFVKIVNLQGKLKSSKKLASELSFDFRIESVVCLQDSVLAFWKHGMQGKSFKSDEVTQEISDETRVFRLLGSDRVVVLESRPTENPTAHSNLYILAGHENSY
Sequence of Paired box protein Pax-8 (Q06710 whole entry): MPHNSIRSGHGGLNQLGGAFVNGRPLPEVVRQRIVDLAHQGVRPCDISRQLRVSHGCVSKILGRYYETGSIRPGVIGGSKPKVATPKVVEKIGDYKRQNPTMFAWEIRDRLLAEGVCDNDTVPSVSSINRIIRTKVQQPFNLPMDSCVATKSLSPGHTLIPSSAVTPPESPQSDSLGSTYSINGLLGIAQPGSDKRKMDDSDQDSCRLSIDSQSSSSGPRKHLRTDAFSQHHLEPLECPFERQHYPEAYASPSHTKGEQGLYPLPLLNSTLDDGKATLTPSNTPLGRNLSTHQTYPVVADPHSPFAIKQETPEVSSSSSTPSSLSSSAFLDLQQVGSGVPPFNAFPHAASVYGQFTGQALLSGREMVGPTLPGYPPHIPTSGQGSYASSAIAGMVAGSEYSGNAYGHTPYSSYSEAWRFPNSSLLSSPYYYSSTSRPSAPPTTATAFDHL
Sequence of Mitogen-activated protein kinase kinase kinase kinase 4 (O95819 whole entry): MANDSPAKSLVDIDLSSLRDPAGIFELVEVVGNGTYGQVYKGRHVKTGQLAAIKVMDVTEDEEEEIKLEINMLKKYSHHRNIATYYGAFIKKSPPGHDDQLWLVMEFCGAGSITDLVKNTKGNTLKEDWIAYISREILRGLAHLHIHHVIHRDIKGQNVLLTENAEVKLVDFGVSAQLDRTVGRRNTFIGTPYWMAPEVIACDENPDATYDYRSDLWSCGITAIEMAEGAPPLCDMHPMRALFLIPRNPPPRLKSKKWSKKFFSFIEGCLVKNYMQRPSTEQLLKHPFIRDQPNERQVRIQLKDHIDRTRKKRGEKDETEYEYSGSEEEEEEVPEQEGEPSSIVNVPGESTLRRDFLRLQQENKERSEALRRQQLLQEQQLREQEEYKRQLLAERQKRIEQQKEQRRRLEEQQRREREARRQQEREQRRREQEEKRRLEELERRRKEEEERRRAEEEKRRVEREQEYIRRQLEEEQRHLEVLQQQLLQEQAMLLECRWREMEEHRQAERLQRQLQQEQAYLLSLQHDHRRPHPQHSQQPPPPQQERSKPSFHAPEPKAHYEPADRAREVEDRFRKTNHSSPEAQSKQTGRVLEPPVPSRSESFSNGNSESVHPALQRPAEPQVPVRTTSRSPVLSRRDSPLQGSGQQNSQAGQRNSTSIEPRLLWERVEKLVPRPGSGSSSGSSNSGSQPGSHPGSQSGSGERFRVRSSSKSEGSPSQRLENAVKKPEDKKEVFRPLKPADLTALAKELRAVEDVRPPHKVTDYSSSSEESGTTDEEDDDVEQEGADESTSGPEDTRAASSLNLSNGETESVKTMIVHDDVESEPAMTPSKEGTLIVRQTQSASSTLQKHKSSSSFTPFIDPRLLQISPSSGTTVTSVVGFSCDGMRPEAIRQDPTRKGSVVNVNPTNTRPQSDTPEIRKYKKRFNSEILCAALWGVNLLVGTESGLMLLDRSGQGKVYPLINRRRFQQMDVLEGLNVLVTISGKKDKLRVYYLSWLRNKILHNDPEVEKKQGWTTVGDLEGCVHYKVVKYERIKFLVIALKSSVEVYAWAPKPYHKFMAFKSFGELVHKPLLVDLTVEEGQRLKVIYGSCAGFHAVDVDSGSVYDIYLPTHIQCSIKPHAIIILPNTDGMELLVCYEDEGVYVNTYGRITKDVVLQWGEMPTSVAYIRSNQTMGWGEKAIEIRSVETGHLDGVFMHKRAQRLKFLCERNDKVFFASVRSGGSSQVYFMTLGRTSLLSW
Sequence of Glycogen synthase kinase-3 beta (P49841 whole entry): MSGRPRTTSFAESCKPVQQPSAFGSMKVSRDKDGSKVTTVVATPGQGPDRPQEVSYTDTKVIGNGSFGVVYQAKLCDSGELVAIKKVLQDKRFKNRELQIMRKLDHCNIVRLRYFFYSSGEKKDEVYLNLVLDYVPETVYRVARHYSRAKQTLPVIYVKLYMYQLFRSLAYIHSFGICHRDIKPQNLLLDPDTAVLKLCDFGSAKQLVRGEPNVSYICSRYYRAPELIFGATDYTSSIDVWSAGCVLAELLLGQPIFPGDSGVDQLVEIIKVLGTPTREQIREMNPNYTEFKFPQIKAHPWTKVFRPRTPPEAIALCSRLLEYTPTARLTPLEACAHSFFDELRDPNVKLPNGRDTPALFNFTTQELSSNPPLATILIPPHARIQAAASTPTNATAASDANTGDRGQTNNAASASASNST

Structure (SMILES): COc1cc(/C=N/Nc2nc(Nc3ccc(C)cc3)nc(-n3nc(C)cc3C)n2)cc(OC)c1OC
- EC50 [1]: 1.82 µM (active)
- EC50 (Streptokinase A): > 150 µM (not active)
- IC50 [2]: > 100 µM (inactive)
- IC50 [3]: > 100 µM (not active)
- EC50 [4]: 0.608 µM (active)
- EC50 [5]: 11 µM (active)
- EC50 (Streptococcus): 15.5 µM (active)
- IC50 (Melanocortin receptor 4): > 64.6 µM (inactive)
- IC50 [6]: > 64.6 µM (inactive)
- AC50 (Paired box protein Pax-8): 6.57 µM (active)
- AC50 [7]: 38.4 µM (active)

Structure (SMILES): Cc1nn(Cc2c(F)c(F)c(F)c(F)c2F)c(C)c1NC(=O)c1ccc(COc2cc(Cl)ccc2Cl)cc1
- EC50 [8]: > 120 µM (not active)
- EC50 [9]: 7.73 µM (active)
- EC50 (H4): 3.37 µM (active)
- IC50 (Cysteine protease ATG4B): 0.532 µM (active)
- IC50 (Phospholipase A2): 0.27 µM (active)

Structure (SMILES): Cc1nn(Cc2c(Cl)cccc2Cl)c(C)c1NC(=O)CCCn1nc([N+](=O)[O-])c(Cl)c1C
- IC50 (Cysteine protease ATG4B): 9.88 µM (active)
- IC50 (Phospholipase A2): 9.06 µM (active)

Structure (SMILES): CN1CCN(c2ccc(NC(=O)c3ccc(-c4ccc(Br)cc4)o3)cc2)CC1
- EC50 [4]: 1.26 µM (active)
- EC50 [5]: > 60 µM (not active)
- CC50 [10]: 16.7 µM (active)
- CC50 [11]: > 20 µM (active)
- CC50 [12]: 13 µM (active)
- IC50 (cells): 2.59 µM (active)
- IC50 [13]: 37 µM (active)
- EC50 [14]: > 10.3 µM (inactive)
- EC50 (Mu-type opioid receptor): > 3.42 µM (active)
- EC50 [15]: > 92.5 µM (inactive)

Structure (SMILES): Cc1cccc(-c2cc3nc(-c4ccccc4)cc(N4CCC5(CC4)OCCO5)n3n2)c1
- IC50 (CHO-K1): > 66.2 µM (inactive)
- IC50 [16]: > 49.8 µM (inactive)
- IC50 [17]: 5.38 µM (active)
- IC50 [18]: 12.6 µM (inactive)
- IC50 (Orexin receptor type 2 [19]): > 88.8 µM (inactive)
- IC50 (Orexin receptor type 2 [20]): > 50 µM (inactive)

Structure (SMILES): O=c1cc(C(F)(F)F)c2c(-c3cccc(C(F)(F)F)c3)n[nH]c2[nH]1
- Ki [21]: 5.01 µM (active)
- Ki [22]: 2 µM (active)
- Ki [23]: 5.01 µM (active)
- Ki [24]: 5.01 µM (active)
- Ki [25]: 5.01 µM (active)
- Ki [26]: 7.94 µM (active)

Structure (SMILES): Cc1cccc(/C=N/NC(=O)c2cc3c(s2)-c2ccccc2CC3)c1
- IC50 (CHO-K1): > 66.2 µM (inactive)
- IC50 [16]: > 49.8 µM (inactive)
- IC50 [17]: 2.13 µM (active)
- IC50 [18]: 2.81 µM (active)
- IC50 (Orexin receptor type 2 [19]): > 88.8 µM (inactive)
- IC50 (Orexin receptor type 2 [20]): > 50 µM (inactive)

Structure (SMILES): Cc1cccc(Nc2nnc(-c3ccc(C(=O)N4C[C@H]5C[C@H](C4)c4cccc(=O)n4C5)cc3)c3ccccc23)c1
- EC50 [27]: 2.12 µM (active) and 1.66 µM (active)
